# Like-named read-outs stand apart in the source and are kept apart here.
# What was measured:
# [1] = Absorption after oral administration of buserelin composition (blood buserelin level, direct method); type: in vivo, cynomolgus monkeys; conditions: calcium carbonate carrier, enteric capsules; for level at 2 h / level at 2.5 h: cynomolgus monkey, blood, po; for level at 2 h: 120 min after oral dose; for level at 2.5 h: 150 min after oral dose
# Description: The particle diameter of calcium carbonate as the carrier was 40 to 45 µm.
# [2] = Absorption after oral administration of PTH (1-34) composition with diclofenac (blood PTH (1-34) level, ELISA); type: in vivo, cynomolgus monkeys; conditions: 10 mg diclofenac added to PTH (1-34)/magnesium oxide composition
# Description: (§1) Then, the resultant mixture was filled in enteric coating capsules.
# [3] = cynomolgus monkey, in vivo
# Procedure: Both components were mixed to make a composition in which the PTH (1-34) content was 600 µg/200 mg, and the resultant mixture was filled in enteric coating capsules.
# The particle diameter of calcium carbonate, AW ceramics, and magnesium oxide used as the carrier was 40 to 45 µm.
# A single oral dose of the above-mentioned composition was administered to two cynomolgus monkeys weighing 5 kg. Their blood samples were collected before dosing, and at 30, 60, 90, 120, 180, 240, 300, and 360 minutes after dosing to determine the blood PTH (1-34) level by using ELISA with a 1-34PTH2 antibody.
# [4] = design: species or system cynomolgus monkeys; conditions: cynomolgus monkey, in vivo
# Description: as §1
compound,measurement,setting,value
"CCNC(=O)[C@@H]1CCCN1C(=O)[C@H](CCCNC(=N)N)NC(=O)[C@H](CC(C)C)NC(=O)[C@@H](COC(C)(C)C)NC(=O)[C@H](Cc1ccc(O)cc1)NC(=O)[C@H](CO)NC(=O)[C@H](Cc1c[nH]c2ccccc12)NC(=O)[C@H](Cc1cnc[nH]1)NC(=O)[C@@H]1CCC(=O)N1 [buserelin, Buserelin]",Blood buserelin level,"[1]; 30 min after oral dose, Animal No. 1",30 or less pg/ml
same,Blood buserelin level,"[1]; 30 min after oral dose, Animal No. 2",30 or less pg/ml
same,Blood buserelin level,"[1]; 30 min after oral dose, Animal No. 3",30 or less pg/ml
same,Blood buserelin level,"[1]; 45 min after oral dose, Animal No. 1",30 or less pg/ml
same,Blood buserelin level,"[1]; 45 min after oral dose, Animal No. 2",30 or less pg/ml
same,Blood buserelin level,"[1]; 45 min after oral dose, Animal No. 3",30 or less pg/ml
same,Blood buserelin level,"[1]; 60 min after oral dose, Animal No. 1",30 or less pg/ml
same,Blood buserelin level,"[1]; 60 min after oral dose, Animal No. 2",30 or less pg/ml
same,Blood buserelin level,"[1]; 60 min after oral dose, Animal No. 3",30 or less pg/ml
same,Blood buserelin level,"[1]; Before dosing, Animal No. 1, oral",30 or less pg/ml
same,Blood buserelin level,"[1]; Before dosing, Animal No. 2, oral",30 or less pg/ml
same,Blood buserelin level,"[1]; Before dosing, Animal No. 3, oral",30 or less pg/ml
same,level at 2 h,[1]; Animal No. 1,0.066 ng/mL
same,level at 2 h,[1]; Animal No. 2,0.107 ng/mL
same,level at 2 h,[1]; Animal No. 3,0.053 ng/mL
same,level at 2.5 h,[1]; Animal No. 1,0.081 ng/mL
same,level at 2.5 h,[1]; Animal No. 2,0.193 ng/mL
same,level at 2.5 h,[1]; Animal No. 3,0.07 ng/mL
same,absorption after oral administration (in words),[1],well absorbed
O=C(O)Cc1ccccc1Nc1c(Cl)cccc1Cl [diclofenac],effect of addition on absorption of PTH (1-34) (in words),[2],enhanced its absorption
PTH (1-34),absorption after oral administration (in words),[3],well absorbed
same,absorption after oral administration (in words),[4],well absorbed

# From patent EP0943336A1, “PEPTIDE-CONTAINING PHARMACEUTICAL COMPOSITIONS FOR ORAL ADMINISTRATION” (DOTT RESEARCH LABORATORY, priority 1996, dated 1999)
